Reference: patent US20250269093A1, “METHODS OF ENHANCING ANTIMICROBIAL EFFICACY OF LOCAL ANESTHETICS” (Chinook Contract Research Inc., priority 2023, published 2025)
Structures can show the parent of a compound that is named as a salt. Where two headings read alike, the source gives them in different places.

How the values were obtained:
[1] = system: P. aeruginosa ATCC 15442; experiment: Broth microdilution assay (MIC); format: cell-based, Pseudomonas aeruginosa; details: for MIC: broth microdilution, 16-24 hours at 37° C.; for MIC +1 mg/mL LD: titrated in a constant concentration of 1 mg/mL lidocaine base
Procedure: (§1) Broth Microdilution Assay: A stock solution of each test article was serially diluted in a 96-well plate for a final volume of 0.1 mL per well. […] Turbidity was assessed after 16-24 hours at 37° C. (100 rpm).
(§2) Incubated at 37° C. at 200 rpm for approximately 2 hours to fully dissolve the powder. Filter sterilized.
(§3) Prepared a 2× stock of lidocaine HCl by dissolving 500 mg per 10 mL OSB (=50 mg/mL). Filter sterilized.
(§4) Serially diluted (2-fold series) the contents of rows B to G: Removed 100 μL from row B to row C and mixed by pipetting up and down at least 3 times. Discarded the tips.
(§5) For bacteria: Mixed 10 μL O/N with 990 μL OSB for ˜10^7 CFU/mL, then mixed 100 μL of the ˜10^7 CFU/mL culture with 9.90 mL BGM for ˜10^5 CFU/mL. • b. For yeast: Mixed 100 μL O/N with 9.90 mL BGM for ˜10^5 CFU/mL.
(§6) Immediately poured the ˜10^5 CFU/mL inoculum into a sterile reagent reservoir and used a multichannel pipettor to aliquot 100 μL into each well of the 96-well plates, excluding row H. Mixed by pipetting up and down at least 3 times. Added uninoculated BGM to row H.
(§7) Sealed the plates in sandwich bags and incubated at 37±1° C. for 16-24 hours (100 rpm).
(§8) Visually scored for growth, which appeared as turbidity or as a deposit of cells at the bottom of a well.
(§9) Determined the MIC (minimum inhibitory concentration) for each organism. The MIC was defined as the minimum concentration that inhibited growth of the organism.
(§10) MIC determination from Broth Microdilution: MIC results were determined following the overnight incubation of the broth microdilution plates. Ensured that the SC wells were free of growth and that the GC wells were positive for growth. To determine the minimum inhibitory concentration (MIC) values, checked for turbidity in the wells of the challenge plate and scored. The MIC was defined as the minimum concentration that inhibited visible growth of the organism.

[2] = system: E. coli ATCC 25922; experiment: Broth microdilution assay (MIC); format: cell-based, Escherichia coli; details: for MIC: broth microdilution, 16-24 hours at 37° C.; for MIC +1 mg/mL LD: titrated in a constant concentration of 1 mg/mL lidocaine base
Procedure: as §1, §2, §3, §4, §5, §6, §7, §8, §9, §10

[3] = system: S. epidermidis ATCC 35984; experiment: Broth microdilution assay (MIC); format: cell-based, Staphylococcus epidermidis; details: for MIC: broth microdilution, 16-24 hours at 37° C.; for MIC +1 mg/mL LD: titrated in a constant concentration of 1 mg/mL lidocaine base
Procedure: as §1, §2, §3, §4, §5, §6, §7, §8, §9, §10

[4] = system: C. albicans ATCC 10231; experiment: Broth microdilution assay (MIC); format: cell-based, Candida albicans; details: for MIC: broth microdilution, 16-24 hours at 37° C.; for MIC +1 mg/mL LD: titrated in a constant concentration of 1 mg/mL lidocaine base
Procedure: as §1, §2, §3, §4, §5, §6, §7, §8, §9, §10

[5] = system: all seven tested organisms; experiment: Broth microdilution assay (MIC), summary over the panel; format: cell-based; details: for MIC (plus lidocaine base): all seven organisms, constant concentration of 1 mg/mL lidocaine base
Procedure: as §1
Prepared a 2× stock solution of lidocaine by dissolving 20 mg of free-base lidocaine per 10 mL of OSB (=2 mg/mL). Incubated at 37° C. at 200 rpm for approximately 2 hours to fully dissolve the powder. Filter sterilized.
as §3
Prepared 2× stock (=8% v/v) of DMSO or NMP by mixing 800 μL of either with 9.2 mL of OSB or with OSB plus 2 mg/mL lidocaine base.
Aliquoted 200 μL of the 2× stock of LD-HCl, LD base, DMSO, NMP, DMSO+LD base, or NMP+LD base into wells B1-2, B3-4, B5-6, B7-8, B9-10, or B11-12, respectively.
as §4, §5, §6, §7, §8, §9
MIC determination from Broth Microdilution: MIC results were determined following the overnight incubation of the broth microdilution plates. […] To determine the minimum inhibitory concentration (MIC) values, checked for turbidity in the wells of the challenge plate and scored. […]

[6] = system: S. aureus ATCC 29213; experiment: Broth microdilution assay (MIC); format: cell-based, Staphylococcus aureus; details: for MIC: broth microdilution, 16-24 hours at 37° C.; for MIC +1 mg/mL LD: titrated in a constant concentration of 1 mg/mL lidocaine base
Procedure: as §1, §2, §3, §4, §5, §6, §7, §8, §9, §10

[7] = system: E. faecalis ATCC 51575; experiment: Broth microdilution assay (MIC); format: cell-based, Enterococcus faecalis; details: for MIC: broth microdilution, 16-24 hours at 37° C.; for MIC +1 mg/mL LD: titrated in a constant concentration of 1 mg/mL lidocaine base
Procedure: as §1, §2, §3, §4, §5, §6, §7, §8, §9, §10

[8] = system: P. mirabilis ATCC 29906; experiment: Broth microdilution assay (MIC); format: cell-based, Proteus mirabilis; details: for MIC: broth microdilution, 16-24 hours at 37° C.; for MIC +1 mg/mL LD: titrated in a constant concentration of 1 mg/mL lidocaine base
Procedure: as §1, §2, §3, §4, §5, §6, §7, §8, §9, §10

[9] = system: P. aeruginosa ATCC 27853; details: cited from earlier work
[10] = system: S. aureus ATCC 29213; details: cited from earlier work
[11] = system: E. coli ATCC 25922; details: cited from earlier work

Compound	MIC [1]	MIC +1 mg/mL LD [1] [% v/v]	MIC [2]	MIC +1 mg/mL LD [2] [% v/v]	MIC [3]	MIC +1 mg/mL LD [3] [% v/v]	MIC [4]	MIC +1 mg/mL LD [4] [% v/v]	MIC (plus lidocaine base) [5] [% v/v]	MIC [6]	MIC +1 mg/mL LD [6] [% v/v]	MIC [7]	MIC +1 mg/mL LD [7] [% v/v]	MIC [8]	MIC +1 mg/mL LD [8] [% v/v]	further results
C[S+](C)[O-] [DMSO, Dimethyl Sulfoxide]	>4.00 % v/v	>4.00	>4.00 % v/v	>4.00	>4.00 % v/v	>4.00	>4.00 % v/v	>4.00	> 4	>4.00 % v/v	>4.00	>4.00 % v/v	>4.00	>4.00 % v/v	>4.00	–
CCN(CC)CC(=O)Nc1c(C)cccc1C [LD-HCl, Lidocaine hydrochloride]	–	–	–	–	–	–	–	–	–	–	–	–	–	–	–	MIC ([1]; Pseudomonas aeruginosa, ATCC15442, read-out: MIC): 25 mg/mL; MIC ([2]; Escherichia coli, ATCC25922, read-out: MIC): 6.25 mg/mL; MIC ([3]; Staphylococcus epidermidis, ATCC35984, read-out: MIC): 25 mg/mL; MIC ([4]; Candida albicans, ATCC10231, read-out: MIC): 12.5 mg/mL; MIC ([6]; Staphylococcus aureus, ATCC29213, read-out: MIC): 12.5 mg/mL; MIC (published literature) [9]: > 20.0 mg/mL; MIC (published literature) [10]: 20.0 mg/mL; MIC (published literature) [11]: 5.00 mg/mL; MIC ([7]; Enterococcus faecalis, ATCC51575, read-out: MIC): 25 mg/mL; MIC ([8]; Proteus mirabilis, ATCC29906, read-out: MIC): 12.5 mg/mL
CCN(CC)CC(=O)Nc1c(C)cccc1C [LD-B, Free base lidocaine]	>1.00 mg/mL	–	>1.00 mg/mL	–	>1.00 mg/mL	–	>1.00 mg/mL	–	–	>1.00 mg/mL	–	>1.00 mg/mL	–	>1.00 mg/mL	–	–
CN1CCCC1=O [NMP, n-methyl-2-pyrrolidone]	4.00 % v/v	4.00	4.00 % v/v	4.00	4.00 % v/v	4.00	4.00 % v/v	4.00	4	4.00 % v/v	4.00	4.00 % v/v	4.00	4.00 % v/v	4.00	MIC ([5]; for all seven tested organisms, maximum challenge concentration 4% v/v): 4 % v/v
